Assay results published in patent US8865910B2 (priority 2010, dated 2014).
Read-outs that look alike come from different tables or passages of the source.

System: M. bovis BCG
Assay: microbe, parasite or virus in culture
Type: cell-based, Mycobacterium bovis BCG
Conditions: Mycobacterium tuberculosis variant bovis BCG, BCG, 192 h
[1] = read-out: Antimycobacterial activity % inhibition at 100 μg/ml Aerobic/Active stage
[2] = read-out: Antimycobacterial activity % inhibition at 100 μg/ml Anearobic/Dormant stage

Structure (SMILES)	inhibition at 100 µg/mL [1]	inhibition at 100 µg/mL [2]
C=CCSc1nc(-c2ccc([N+](=O)[O-])cc2)n[nH]1 [4d, 3-(allylthio)-5-(4-nitrophenyl)-1H-1,2,4-triazole]	25%	14%
c1ccc(Cn2cc(CSc3ncnn3Cc3cn(Cc4ccccc4)nn3)nn2)cc1 [3a, 1-benzyl-4-((1-((1-benzyl-1H-1,2,3-triazol-4-yl)methyl)-1H-1,2,4-triazol-5-ylthio)methyl)-1H-1,2,3-triazole]	8%	3%
C#CCn1nc(SCC=C)nc1C(C)(C)C [8d, 3-(allylthio)-5-tert-butyl-1-(prop-2-ynyl)-1H-1,2,4-triazole]	98%	82%
Clc1ccc(-c2nc(SCc3cn(Cc4ccccc4)nn3)nn2Cc2cn(Cc3ccccc3)nn2)cc1 [2f, 1-benzyl-4-((1-((1-benzyl-1H-1,2,3-triazol-4-yl)methyl)-5-(4-chlorophenyl)-1H-1,2,4-triazol-3-ylthio)methyl)-1H-1,2,3-triazole]	21%	17%
C#CCSc1nc(C(C)(C)C)n(CC=C)n1 [8b, 1-allyl-5-tert-butyl-3-(prop-2-ynylthio)-1H-1,2,4-triazole]	96%	91%
COc1ccc(-c2nc(SCc3cn(Cc4ccccc4)nn3)n(Cc3cn(Cc4ccccc4)nn3)n2)cc1 [3e, 1-benzyl-4-((1-((1-benzyl-1H-1,2,3-triazol-4-yl)methyl)-3-(4-methoxyphenyl)-1H-1,2,4-triazol-5-ylthio)methyl)-1H-1,2,3-triazole]	86%	82%
COc1ccc(-c2nc(SCc3cn(Cc4ccccc4)nn3)nn2Cc2cn(Cc3ccccc3)nn2)cc1 [2e, 1-benzyl-4-((1-((1-benzyl-1H-1,2,3-triazol-4-yl)methyl)-5-(4-methoxyphenyl)-1H-1,2,4-triazol-3-ylthio)methyl)-1H-1,2,3-triazole]	1%	8%
Brc1nc(Br)n(Cc2cn(Cc3ccccc3)nn2)n1 [11d, 1-benzyl-4-((3,5-dibromo-1H-1,2,4-triazol-1-yl)methyl)-1H-1,2,3-triazole]	2%	13%
CC(C)(C)c1nc(SCc2cn(Cc3ccccc3)nn2)nn1Cc1cn(Cc2ccccc2)nn1 [2c, 1-benzyl-4-((1-((1-benzyl-1H-1,2,3-triazol-4-yl)methyl)-5-tert-butyl-1H-1,2,4-triazol-3-ylthio)methyl)-1H-1,2,3-triazole]	8%	15%
C=CCSc1nc(C)n[nH]1 [4b, 3-(allylthio)-5-methyl-1H-1,2,4-triazole]	98%	97%
C=CCSc1nc[nH]n1 [4a, 3-allylthio-1H 1,2,4 triazole]	51%	32%
C#CCSc1ncnn1CC=C [9a, 1-allyl-5-(prop-2-ynylthio)-1H-1,2,4-triazole]	40%	22%
C=CCSc1ncnn1CC=C [6a, 1-allyl-5-(allylthio)-1H-1,2,4-triazole]	65%	60%
C=CCSc1nc(-c2ccc(OC)cc2)nn1CC=C [6e, 1-allyl-5-(allylthio)-3-(4-methoxyphenyl)-1H-1,2,4-triazole]	88%	83%
C=CCSc1nc(C(C)(C)C)n(CC=C)n1 [5c, 1-allyl-3-(allylthio)-5-tert-butyl-1H-1,2,4-triazole]	45%	36%
C=CCSc1nc(-c2ccc([N+](=O)[O-])cc2)nn1CC=C [6d, 1-allyl-5-(allylthio)-3-(4-nitrophenyl)-1H-1,2,4-triazole]	40%	12%
C#CCn1nc(C(C)(C)C)nc1SCC=C [8c, 5-(allylthio)-3-tert-butyl-1-(prop-2-ynyl)-1H-1,2,4-triazole]	98%	79%
Cc1nc(SCc2cn(Cc3ccccc3)nn2)nn1Cc1cn(Cc2ccccc2)nn1 [2b, 1-benzyl-4-((1-((1-benzyl-1H-1,2,3-triazol-4-yl)methyl)-5-methyl-1H-1,2,4-triazol-3-ylthio)methyl)-1H-1,2,3-triazole]	8%	12%
C#CCS(=O)(=O)c1n[nH]c(C)n1 [7b, 3-methyl-5-(prop-2-ynylsulfonyl)-1H-1,2,4-triazole]	92%	82%
C=CCSc1nc(C)nn1CC=C [6b, 1-allyl-5-(allylthio)-3-methyl-1H-1,2,4-triazole]	22%	10%
c1ccc(Cn2cc(CSc3ncn[nH]3)nn2)cc1 [1a]	3%	4%
C=CCSc1nc(-c2ccc(Cl)cc2)n(CC=C)n1 [5f, 1-allyl-3-(allylthio)-5-(4-chlorophenyl)-1H-1,2,4-triazole]	94%	91%
C#CCS(=O)(=O)c1n[nH]c(-c2ccc(OC)cc2)n1 [7e, 3-(4-methoxyphenyl)-5-(prop-2-ynylsulfonyl)-1H-1,2,4-triazole]	88%	82%

Structure (SMILES)	inhibition at 100 µg/mL [1]	inhibition at 100 µg/mL [2]
Cc1n[nH]c(SCc2cn(Cc3ccccc3)nn2)n1 [1b]	10%	14%
C#CCSc1nc(C)nn1CC=C [10a, 1-allyl-3-methyl-5-(prop-2-ynylthio)-1H-1,2,4-triazole]	98%	93%
C=CCSc1nc(-c2ccc([N+](=O)[O-])cc2)n(CC=C)n1 [5d, 1-allyl-3-(allylthio)-5-(4-nitrophenyl)-1H-1,2,4-triazole]	15%	18%
Cc1nc(SCc2cn(Cc3ccccc3)nn2)n(Cc2cn(Cc3ccccc3)nn2)n1 [3b, 1-benzyl-4-((1-((1-benzyl-1H-1,2,3-triazol-4-yl)methyl)-3-methyl-1H-1,2,4-triazol-5-ylthio)methyl)-1H-1,2,3-triazole]	85%	76%
C#CCSc1nc(C)n(CC=C)n1 [10b, 1-allyl-5-methyl-3-(prop-2ynylthio)-1H-1,2,4-triazole]	98%	92%
O=[N+]([O-])c1ccc(-c2nc(SCc3cn(Cc4ccccc4)nn3)n(Cc3cn(Cc4ccccc4)nn3)n2)cc1 [3d, 1-benzyl-4-((1-((1-benzyl-1H-1,2,3-triazol-4-yl)methyl)-3-(4-nitrophenyl)-1H-1,2,4-triazol-5-ylthio)methyl)-1H-1,2,3-triazole]	13%	11%
C=CCSc1nc(-c2ccc(Cl)cc2)nn1CC=C [6f, 1-allyl-5-(allylthio)-3-(4-chlorophenyl)-1H-1,2,4-triazole]	26%	14%
C=CCSc1n[nH]c(-c2ccc(OC)cc2)n1 [4e, 3-(allylthio)-5-(4-methoxyphenyl)-1H-1,2,4-triazole]	94%	93%
C#CCS(=O)(=O)c1n[nH]c(-c2ccc(Cl)cc2)n1 [7f, 3-(4-chlorophenyl)-5-(prop-2-ynylsulfonyl)-1H-1,2,4-triazole]	88%	86%
C#CCSc1nc(C(C)(C)C)nn1CC=C [8a, 1-allyl-3-tert-butyl-5-(prop-2-ynylthio)-1H-1,2,4-triazole]	76%	74%
C#CCS(=O)(=O)c1nc[nH]n1 [7a, 5-(prop-2-ynylsulfonyl)-1H-1,2,4-triazole]	42%	23%
C=CCSc1ncn(CC=C)n1 [5a, 1-allyl-3-(allylthio)-1H-1,2,4-triazole]	58%	42%
CC(C)(C)c1nc(SCc2cn(Cc3ccccc3)nn2)n(Cc2cn(Cc3ccccc3)nn2)n1 [3c, 1-benzyl-4-((1-((1-benzyl-1H-1,2,3-triazol-4-yl)methyl)-3-tert-butyl-1H-1,2,4-triazol-5-ylthio)methyl)-1H-1,2,3-triazole]	10%	13%
C#CCS(=O)(=O)c1n[nH]c(-c2ccc([N+](=O)[O-])cc2)n1 [7d, 3-(4-nitrophenyl)-5-(prop-2-ynylsulfonyl)-1H-1,2,4-triazole]	96%	91%
C#CCn1nc(Br)nc1Br [11a, 3,5-dibromo-1-(prop-2-ynyl)-1H-1,2,4-triazole]	97%	20%
C=C(C)Cn1nc(Br)nc1Br [11c, 3,5-dibromo-1-(2-methylallyl)-1H-1,2,4-triazole]	9%	19%
C=CCSc1nc(C(C)(C)C)n[nH]1 [4c, 3-(allylthio)-5-tert-butyl-1H-1,2,4-triazole]	57%	39%
C=CCSc1nc(C(C)(C)C)nn1CC=C [6c, 1-allyl-5-(allylthio)-3-tert-butyl-1H-1,2,4-triazole]	30%	33%
C=CCSc1nc(-c2ccc(OC)cc2)n(CC=C)n1 [5e, 1-allyl-3-(allylthio)-5-(4-methoxyphenyl)-1H-1,2,4-triazole]	89%	84%
C#CCS(=O)(=O)c1nc(C(C)(C)C)n[nH]1 [7c, 3-tert-butyl-5-(prop-2-ynylsulfonyl)-1H-1,2,4-triazole]	76%	74%
C=CCSc1nc(C)n(CC=C)n1 [5b, 1-allyl-3-(allylthio)-5-methyl-1H-1,2,4-triazole]	25%	15%
C=CCn1nc(Br)nc1Br [11b, 1-allyl-3,5-dibromo-1H-1,2,4-triazole]	12%	21%
CC(C)(C)c1n[nH]c(SCc2cn(Cc3ccccc3)nn2)n1 [1c]	3%	11%
